Assay [1] deals with six trypanosome species. In words: Anti-trypanosomal assay, statements over all six species. In kind it is cell-based, Trypanosoma. The following applies: for antitrypanosomal activity: assayed at 0.25 or 25 μg/ml; for trypanocidal activity (words): at about 25 μg/ml. The method, then:
(§1) Six trypanosome species namely T. b. brucei (Tbb) GuTat3.1, T. b. rhodesiense (Tbr) IL1501, T. b. gambiense (Tbg) IL1922, T. evansi (Tev) Tansui, T. equiperdum (Teq) IVM-t1 and T. congolense (Tc) IL3000, were cultivated using HMI-9 medium and used in the study. […]
(§2) The IC50 of Neohesperidin dihydrochalcone against six trypanosome species was determined using serial dilution in a 96-well plate (Optical bottom plate, ThermoFisher SCIENTIFIC, MA, USA). After three days, […] of CellTiter-Glo Luminescent cell viability reagent (Promega Corporation, WI, USA) was aliquoted into each well and luminosity was measured with a GloMax plate reader (Promega Corporation, WI, USA).

Assay [2] concerns T. b. brucei (Tbb) GuTat3.1. As to the kind of experiment: Anti-trypanosomal assay (CellTiter-Glo), TbbGUTat3.1. In kind it is cell-based. The following applies: mean ± SD. The method, then: as §1, §2
(Cellular ATP, detected with luciferase, serves as a proxy for viable cell number.)

The subject of assay [3] is T. b. gambiense (Tbg) IL1922. In words: Anti-trypanosomal assay (CellTiter-Glo), TbgIL1922. In kind it is cell-based. The following applies: mean ± SD. As for the experimental part:
as §1, §2

Assay [4] concerns T. equiperdum (Teq) IVM-t1. As to the kind of experiment: Anti-trypanosomal assay (CellTiter-Glo), Teq IVM-t1. In kind it is cell-based. The method, then:
as §1, §2

Assay [5] concerns T. congolense (Tc) IL3000. As to the kind of experiment: Anti-trypanosomal assay (CellTiter-Glo), TcIL3000. In kind it is cell-based. The following applies: mean ± SD. As for the experimental part:
Six trypanosome species namely T. b. brucei (Tbb) GuTat3.1, T. b. rhodesiense (Tbr) IL1501, T. b. gambiense (Tbg) IL1922, T. evansi (Tev) Tansui, T. equiperdum (Teq) IVM-t1 and T. congolense (Tc) IL3000, were cultivated using HMI-9 medium and used in the study. The trypanocidal activity of hesperidin and neohesperidin dihydrochalcone, shown below, was assessed at 25 μg/ml or […].
as §2

Assay [6] relates to T. evansi (Tev) Tansui. In words: Anti-trypanosomal assay (CellTiter-Glo), Tev Tansui. In kind it is cell-based. The following applies: mean ± SD. The method, then:
as §1, §2

The test system of assay [7] is T. b. rhodesiense (Tbr) IL1501. As to the kind of experiment: Anti-trypanosomal assay (CellTiter-Glo), TbrIL1501. In kind it is cell-based. The following applies: mean ± SD. The method, then:
as §1, §2

The subject of assay [8] is Trypanosoma. The following applies: previously tested; cited from earlier work.
In assay [9] the test system is Toxoplasma gondii. The following applies: compared to other flavonoids and conventional medicines; cited from earlier work.
Setting [10] is: Trypanosoma equiperdum, read-out: Inhibition rate.

Values after ≈ are worked out from the molar mass of the structure shown.

As usually defined, the inhibition is the change of the read-out against control, counted positive when it falls. Turning to `COc1ccc([C@@H]2CC(=O)c3c(O)cc(O[C@@H]4O[C@H](CO[C@@H]5O[C@@H](C)[C@H](O)[C@@H](O)[C@H]5O)[C@@H](O)[C@H](O)[C@H]4O)cc3O2)cc1O` [Hesperidin, hesperidin, reference compound], the “antitrypanosomal activity” value in [1] is reported as “inadequate antitrypanosomal activity”. Also, the “trypanocidal activity (words)” value in assay [1] is listed as “no activity”. For the same compound, the inhibition at 0.25 µg/mL in assay [2] (Trypanosoma brucei, TbbGUTat3.1, 0.25 μg/ml, read-out: Inhibition rate) came out at 0%; in assay [3] (Trypanosoma brucei, GAMBIENSE, TbgIL1922, 0.25 μg/ml, read-out: Inhibition rate), 1.56 ± 2.2%; in assay [4] (setting [10]), 0.015 ± 0.022%; in [5] (Trypanosoma congolense, TcIL3000, 0.25 μg/ml, read-out: Inhibition rate), 0%; in assay [6] (0.25 μg/ml, read-out: Inhibition rate) it was 7.67 ± 5.9%; in assay [7] (Trypanosoma brucei, RHODESIENSE, TbrIL1501, 0.25 μg/ml, read-out: Inhibition rate), 7.17 ± 3.1%. The inhibition at 25 µg/mL in [2] (Trypanosoma brucei, TbbGUTat3.1, 25 μg/ml, read-out: Inhibition rate) stood at 1.05 ± 0.99%; in assay [3] (Trypanosoma brucei, GAMBIENSE, TbgIL1922, 25 μg/ml, read-out: Inhibition rate), 0%; in assay [4] (setting [10]), 0.97 ± 1.37%; in assay [5] (Trypanosoma congolense, TcIL3000, 25 μg/ml, read-out: Inhibition rate), 0%; in assay [6] (25 μg/ml, read-out: Inhibition rate) it was 0%; in assay [7] (Trypanosoma brucei, RHODESIENSE, TbrIL1501, 25 μg/ml, read-out: Inhibition rate), 0%. In addition, the “trypanocidal action” value in [8] is “did not previously show any trypanocidal action”.

Broadly, the IC50 is the concentration that inhibits the measured activity by half. Higher therefore signals weaker potency. In the case of `COc1ccc(CCC(=O)c2c(O)cc(O[C@@H]3O[C@H](CO)[C@@H](O)[C@H](O)[C@H]3O[C@@H]3O[C@@H](C)[C@H](O)[C@@H](O)[C@H]3O)cc2O)cc1O` [Neohesperidin dihydrochalcone, neohesperidin dihydrochalcone], in assay [1], the “antitrypanosomal activity” value is “broad-spectrum and strong inhibition of trypanosomal growth”. In addition, the “trypanocidal activity (words)” value in assay [1] is reported as “substantial trypanocidal activity”; in [1] (listed as neohesperidin dihydrochalcone), “suppressed all the test strains”. Moreover, in assay [1] (low concentration of 0.25 μg/ml), the “inhibition rate, range over the species” value is recorded as 1.09-3.95%. For the same compound, in assay [1] (six Trypanosoma species), the “IC50 range over the six species” value was in the range of 8.88 to 22.53 µg/mL. The Inhibition rate is 2.89 ± 1.69% in assay [2] (TbbGUTat3.1, 0.25 μg/ml); 99.65 ± 0.2% in assay [2] (TbbGUTat3.1, 25 μg/ml); “more than 99%” in assay [2] (TbbGUTat3.1, 25 μg/ml, listed as neohesperidin dihydrochalcone); 1.09 ± 0.64% in [3] (TbgIL1922, 0.25 μg/ml); 99.63 ± 0.28% in [3] (TbgIL1922, 25 μg/ml); “more than 99%” in assay [3] (TbgIL1922, 25 μg/ml, listed as neohesperidin dihydrochalcone). The Inhibition rate in assay [4] (Teq IVM-t1, 0.25 μg/ml, mean ± SD) is given as 0.59 ± 0.84%; in assay [4] (Teq IVM-t1, 25 μg/ml, mean ± SD) it was 98.8 ± 0.17%; in [4] (Teq IVM-t1, 25 μg/ml, mean ± SD, listed as neohesperidin dihydrochalcone), “more than 99%”; in assay [5] (TcIL3000, 0.25 μg/ml), 0%; in [5] (TcIL3000, 25 μg/ml), 82.07 ± 6.4%; in assay [6] (0.25 μg/ml), 3.59 ± 5.5%. The Inhibition rate in [6] (25 μg/ml) is 99.18 ± 0.22%; in assay [6] (25 μg/ml, listed as neohesperidin dihydrochalcone), “more than 99%”; in assay [7] (TbrIL1501, 0.25 μg/ml), 3.95 ± 5.59%; in assay [7] (TbrIL1501, 25 μg/ml), 99.63 ± 0.25%; in [7] (TbrIL1501, 25 μg/ml, listed as neohesperidin dihydrochalcone), “more than 99%”. Also, the half-maximal inhibitory concentration (IC50) is 11.97 ± 0.026 µg/mL (≈ 19.5 µM) in assay [2] (TbbGUTat3.1, three days); 8.88 ± 3.84 µg/mL (≈ 14.5 µM) in assay [3] (TbgIL1922, three days); 11.38 ± 3.93 µg/mL (≈ 18.6 µM) in assay [4] (Teq IVM-t1, three days, mean ± SD); 22.53 ± 2.3 µg/mL (≈ 36.8 µM) in assay [5] (TcIL3000, three days); 12.69 ± 0.98 µg/mL (≈ 20.7 µM) in assay [6] (three days); 9.47 ± 2.73 µg/mL (≈ 15.5 µM) in assay [7] (TbrIL1501, three days).

As for `COc1ccc([C@@H]2CC(=O)c3c(O)cc(O[C@@H]4O[C@H](CO)[C@@H](O)[C@H](O)[C@H]4O[C@@H]4O[C@@H](C)[C@H](O)[C@@H](O)[C@H]4O)cc3O2)cc1O` [neohesperidin], in [9], the “antiprotozoal activity against Toxoplasmosis” value was “not as effective as other standard drugs or flavonoids”.
